“Also recorded” adds a separate entry of the source. Marks after values point to notes of the source that are not given here.
Key:
[1] = Pharmacokinetic properties of elagolix in healthy subjects; details: human, in vivo
[2] = tested on: mice; assay: 2-year carcinogenicity study in mice; type: in vivo; details: mouse, any dose
[3] = tested on: QTc interval; assay: Thorough QT study; type: in vivo, human; details: up to 1200 mg; 17- to 23-fold therapeutic concentrations; active control moxifloxacin 400 mg
Protocol: The effect of elagolix (up to 1200 mg) on QTc interval was evaluated in an active-controlled (moxifloxacin 400 mg) thorough QT study.

[4] = tested on: rats; assay: 2-year carcinogenicity study in rats; type: in vivo; details: rat
From the text: The rat tumors were identified as being species-specific and of negligible relevance to humans. This conclusion is based on a follow-on thyroid and hepatic effects-related investigative study performed to document the possibility that thyroid and liver tumors may be specific to rat and occurred via induction of hepatic drug metabolizing enzymes at the high dose.

[5] = BCS classification of Compound A; type: physicochemical
From the text: Release Profile Drugs administered via oral solid dosage forms should dissolve in vivo before systemic absorption can take place. There are number of factors which affect drug dissolution, including physicochemical properties of the drug substance. […] Incomplete dissolution may result in highly variable inter- and intra patient bioavailability. It has been determined in the present application that Compound A is a BCS class III drug. It also has been determined in the present application that the monosodium salt of Compound A has a tendency to form a gel, particularly when present at an amount greater than about 10% by weight in the absence of an appropriate anti-gelling agent, when administered orally in a solid dosage form. Thus, it is desirable to provide oral solid dosage forms that facilitate drug dissolution.

[6] = tested on: premenopausal women with endometriosis with associated pain; assay: Study EM-I: responders on Daily Endometriosis Pain Impact Scale; type: in vivo, human; details: 150 mg QD
From the text: Each placebo-controlled study assessed the reduction in endometriosis-associated pain over 6 months of treatment. More than 75 percent of women who completed Study EM-I and EM-II enrolled in the extension studies for an additional 6 months treatment period. Subjects were followed for up to 12 months post-treatment. See FIGS. 11-14 The co-primary efficacy endpoints were the proportion of responders for dysmenorrhea and pelvic pain not related to menses (also known as non-menstrual pelvic pain [NMPP]) at Month 3 compared to placebo. The primary analysis independently evaluated these endpoints using a daily diary that asked patients to assess their pain and its impact on their daily activities, over the previous 24 hours. […] Women were defined as responders if they experienced clinically meaningful reduction in dysmenorrhea and/or NMPP with no increased analgesic use for endometriosis associated pain. Dyspareunia was evaluated as a secondary endpoint using the Daily Endometriosis Pain Impact Scale.

[7] = tested on: CYP3A, CYP2D6, CYP2C8, uridine glucuronosyltransferases (UGTs); assay: Metabolism pathways of elagolix; type: in vitro ADME, human
[8] = tested on: rats; assay: Fertility and repeat-dose studies in rats; type: in vivo, rat
From the text: Based on pharmacologic actions of elagolix in humans a reversible effect on fertility may be expected in women.

[9] = tested on: premenopausal women with endometriosis with associated pain; assay: Studies EM-I and EM-II: dysmenorrhea scores and Numeric Rating Scale (NRS) pain; type: in vivo, human
From the text: Women in these studies also provided a daily self-assessment of their endometriosis pain using the Numeric Rating Scale (NRS), on a scale ranging from 0 (no pain) to 10 (worst pain ever).

[10] = tested on: estradiol; assay: Estradiol suppression in the Phase 3 studies in women with endometriosis; type: in vivo, human; details: 150 mg QD, partial suppression
[11] = tested on: cytochrome P450 (CYP) 3A enzyme; assay: Elagolix as inducer and substrate of CYP3A
From the text: Co-administration with elagolix may decrease plasma concentration of drugs that are substrates of CYP3A.
Elagolix is a substrate of CYP3A, P-gp, and organic anion transporting polypeptide (OATP)1B1. Clinically meaningful interactions are not expected when elagolix is co-administered with drugs that inhibit CYP3A or P-gp.

[12] = tested on: women with moderate to severe endometriosis-related pain; assay: PROMIS Fatigue SF-6a T-score in Phase III endometriosis study; type: in vivo, human
Protocol: A Phase III study was conducted to assess the effects of elagolix for clinically meaningful reductions in pain and other symptoms. Data provided examined the impact of elagolix on fatigue in women with moderate to severe endometriosis-related pain. […] Fatigue was assessed using the Patient Reported Outcome Measurement Information System (PROMIS®), Fatigue Short Form (SF) 6a. Six items assessed a range of self-reported symptoms from mild, subjective feelings of tiredness to overwhelming, sustained sense of exhaustion that likely decreases one's ability to execute daily activities and function normally. The domain was divided into the experience of fatigue (frequency, duration and intensity) and impact of fatigue on physical, mental and social activities. All items assessed fatigue over the previous seven days. Responses to each question was filed on a 5-item Likert scale: 1—“Not at all”; 2—“A little bit”; 3—“Somewhat”; 4—“Quite a bit”; and 5—“Very much.” The questionnaire was administered at baseline and months 1, 3, and 6. Lower scores indicated less fatigue. Post-hoc, Fatigue SF-6a raw scores were converted to T-scores. The T-score rescales […] the raw score into a standardized score such that the general population has a mean of 50 and a standard deviation (SD) of 10. Analysis: […] ANCOVA controlled for treatment as main effect. Baseline Fatigue SF-6a T-score included as a covariate.

[13] = Lactation study in rats (elagolix in pup plasma); type: in vivo, rat
Protocol: Pregnant rats were given diet containing elagolix throughout the gestation and lactation periods to achieve a daily elagolix dose of 400 mg/kg. During nursing the dams and litters were divided into restricted feeding and non-restricted groups to determine whether elagolix was secreted in the mother's milk. […] In pups of the non-restricted feeding group, elagolix plasma concentrations were measurable and approximately 1% of the mother's plasma concentrations.

[14] = Drug interaction studies: elagolix in the presence of co-administered drug; type: in vivo, human; details: for AUC Ratio (co-administration vs elagolix alone) / Cmax Ratio (co-administration vs elagolix alone): elagolix 150 mg single dose
Protocol: Drug interaction studies were performed with elagolix and other drugs that are likely to be co-administered and with drugs commonly used as probes for pharmacokinetic interactions.

[15] = Ketoconazole 400 mg once daily, N 11
[16] = Rifampin 600 mg single dose, N 12

## COc1cccc(-c2c(C)n(Cc3c(F)cccc3C(F)(F)F)c(=O)n(C[C@H](NCCCC(=O)O)c3ccccc3)c2=O)c1F [Compound A, 4-((R)-2-[5-(2-fluoro-3-methoxy-phenyl)-3-(2-fluoro-6-trifluoromethyl-benzyl)-4-methyl-2,6-dioxo-3,6-dihydro-2H-pyrimidin-1-yl]-1-phenyl-ethylamino)-butyric acid]
[1]
  Major route of elimination: Hepatic metabolism
[2]
  tumors, 2-year carcinogenicity study: no increase in tumors
[3]
  Effect on QTc interval: does not prolong the QTc interval
[4]; both, in vivo, 2 years
  margin of safety with respect to 200 mg BID in women: 13 fold
[4]; high dose
  tumors, 2-year carcinogenicity study: increase in thyroid (male and female) and liver (males only) tumors
[5]
  BCS class: BCS class III
[6]
  Proportion of Responders, Dysmenorrhea (Month 3): 45.4*** %
[7]
  Metabolism (major pathway): CYP3A (major)
[7]; listed as Elagolix
  Metabolism, minor pathways: Minor pathways include: CYP2D6,; also recorded: CYP2C8, and uridine; also recorded: glucuronosyltransferases (UGTs)
[8]; doses 50, 150, 300 mg/kg/day
  effect in fertility study: no effect
[8]; doses 600, 800 mg/kg/day
  ovarian findings in repeat-dose study: involution and a decrease in corpora lutea in ovaries
[9]; 150 mg QD and 200 mg BID, vs placebo at Month 3 and Month 6
  Numeric Rating Scale (NRS) endometriosis pain scores: highly statistically (p<0.001) significant reduction in NRS scores
[9]; both elagolix treatment groups, Month 1 through Month 6, vs placebo
  mean decreases from Baseline in dysmenorrhea scores: statistically significantly greater than placebo
[10]
  suppression of estradiol to: approximately 50 pg/mL
[11]
  induction of cytochrome P450 (CYP) 3A enzyme: weak to moderate inducer
  substrate of CYP3A: substrate
[12]; 200 mg, Month 1, vs placebo
  PROMIS Fatigue SF-6a T-Score: statistically significant reduction in fatigue
[12]; both doses (150 mg QD, 200 mg BID), Months 3 and 6, vs placebo
  PROMIS Fatigue SF-6a T-Score: Statistically significant reductions relative to placebo
[13]; dams 400 mg/kg daily in diet, non-restricted feeding group
  elagolix plasma concentrations in pups, % of the mother's plasma concentrations: approximately 1%
[13]; dams 400 mg/kg daily in diet, restricted feeding litters, post natal day 10 and 20
  elagolix plasma concentrations in pups: not measurable
[13]; listed as elagolix
  secretion in milk: secreted minimally via milk; also recorded: minimally secreted in milk
[14]; [15]
  AUC Ratio (co-administration vs elagolix alone): 2.20
  Cmax Ratio (co-administration vs elagolix alone): 1.77
[14]; Rifampin 600 mg once daily
  AUC Ratio (co-administration vs elagolix alone): 1.65
  Cmax Ratio (co-administration vs elagolix alone): 2.00
[14]; [16]
  AUC Ratio (co-administration vs elagolix alone): 5.58
  Cmax Ratio (co-administration vs elagolix alone): 4.37
[14]; concomitant rifampin
  direction of the change in AUC of elagolix: ↑ elaolix

Reference: patent publication US12102637B2, “Pharmaceutical formulations for treating endometriosis, uterine fibroids, polycystic ovary syndrome or adenomyosis” (AbbVie Inc., priority 2017, dated 2024)
